How the values were obtained:
[1] = xn = mol fraction of the nth substance listed; conditions: Pendant drop shape
[2] = for surface tension liquid-gas: Pendant drop shape; for mass density: 101.33 kPa, Liquid

CCOC(C)OCC [1,1-diethoxyethane] + Cc1ccc(C)c(C)c1
[1]
Conditions | surface tension liquid-gas [mN/m]
298.15 K, x1 = 0.05 | 28.51
298.15 K, x1 = 0.1 | 27.76
298.15 K, x1 = 0.151 | 26.97
298.15 K, x1 = 0.2005 | 26.29
298.15 K, x1 = 0.2511 | 25.71
298.15 K, x1 = 0.3005 | 25.14
298.15 K, x1 = 0.3526 | 24.6
298.15 K, x1 = 0.401 | 24.16
298.15 K, x1 = 0.4538 | 23.73
298.15 K, x1 = 0.5034 | 23.35
298.15 K, x1 = 0.5513 | 23.01
298.15 K, x1 = 0.5998 | 22.7
298.15 K, x1 = 0.6519 | 22.41
298.15 K, x1 = 0.7012 | 22.08
298.15 K, x1 = 0.7499 | 21.85
298.15 K, x1 = 0.8003 | 21.58
298.15 K, x1 = 0.8491 | 21.42
298.15 K, x1 = 0.9 | 21.21
298.15 K, x1 = 0.9399 | 21.09
298.15 K, x1 = 1 | 20.88
308.15 K, x1 = 0.0488 | 27.35
308.15 K, x1 = 0.0993 | 26.53
308.15 K, x1 = 0.1486 | 25.79
308.15 K, x1 = 0.2003 | 25.09
308.15 K, x1 = 0.2497 | 24.51
308.15 K, x1 = 0.3001 | 23.95
308.15 K, x1 = 0.3499 | 23.47
308.15 K, x1 = 0.4004 | 23.02
308.15 K, x1 = 0.4534 | 22.6
308.15 K, x1 = 0.5016 | 22.23
308.15 K, x1 = 0.55 | 21.9
308.15 K, x1 = 0.6017 | 21.54
308.15 K, x1 = 0.6514 | 21.24
308.15 K, x1 = 0.7003 | 20.96
308.15 K, x1 = 0.7498 | 20.72
308.15 K, x1 = 0.8007 | 20.46
308.15 K, x1 = 0.8502 | 20.28
308.15 K, x1 = 0.8989 | 20.09
308.15 K, x1 = 0.9488 | 19.95
308.15 K, x1 = 1 | 19.89
313.15 K, x1 = 0.0498 | 26.73
313.15 K, x1 = 0.0992 | 25.91
313.15 K, x1 = 0.1501 | 25.09
313.15 K, x1 = 0.2003 | 24.46
313.15 K, x1 = 0.2496 | 23.86
313.15 K, x1 = 0.3027 | 23.34
313.15 K, x1 = 0.3505 | 22.89
313.15 K, x1 = 0.4 | 22.43
313.15 K, x1 = 0.4501 | 22.05
313.15 K, x1 = 0.499 | 21.67
313.15 K, x1 = 0.5463 | 21.37
313.15 K, x1 = 0.6011 | 20.95
313.15 K, x1 = 0.6503 | 20.68
313.15 K, x1 = 0.7002 | 20.4
313.15 K, x1 = 0.7491 | 20.14
313.15 K, x1 = 0.7998 | 19.91
313.15 K, x1 = 0.8507 | 19.72
313.15 K, x1 = 0.899 | 19.53
313.15 K, x1 = 0.9497 | 19.45
313.15 K, x1 = 1 | 19.42

COC(C)(C)OC [3,3-dimethyl-2,4-dioxapentane]
[2]
Conditions | mass density [kg/m3] | surface tension liquid-gas [mN/m]
298.15 K | 845.09 | 21.46
308.15 K | 834.41 | 20.43
313.15 K | 828.99 | 19.91

From the NIST ThermoML archive (doi:10.1021/je060490w)
